In the supplement of paper PMC8612539:
≈ marks a conversion by molar mass, not a printed value.

Test system: Histophilus somni
Test: minimum inhibitory concentration (MIC)
Method: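 Broth microdilution MIC (Sensititre BOPO7F bovine plate, CLSI methods) of 19 antimicrobials against field isolates of P. multocida, M. haemolytica, H. somni (deep nasopharyngeal swabs) and E. coli, Enterococcus spp. (rectal swabs) from weaned dairy heifers. Incubation 16-24 h at 35 C. MIC is the lowest concentration preventing visible growth. Values with <= or > lie at the tested range limits. Trimethoprim-sulfamethoxazole is given as the trimethoprim component of a 1:19 mixture.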

CC[C@H]1OC(=O)C[C@@H](O)[C@H](C)[C@@H](O[C@@H]2O[C@H](C)[C@@H](O)[C@H](N(C)C)[C@H]2O)[C@@H](CCN2C[C@H](C)C[C@H](C)C2)C[C@@H](C)C(=O)/C=C/C(C)=C/[C@@H]1CO[C@@H]1O[C@H](C)[C@@H](O)[C@@H](OC)[C@H]1OC [Tilmicosin]
Details	minimum inhibitory concentration [mg/L]
isolate (source animal id): 3	8 (≈ 9.2 µM)
isolate (source animal id): 4	≤ 2
isolate (source animal id): 7	≤ 2
isolate (source animal id): 14	≤ 2
isolate (source animal id): 15	8 (≈ 9.2 µM)
isolate (source animal id): 17	≤ 2
isolate (source animal id): 18	4 (≈ 4.6 µM)
isolate (source animal id): 20	≤ 2
isolate (source animal id): 23	4 (≈ 4.6 µM)
isolate (source animal id): 45	8 (≈ 9.2 µM)
isolate (source animal id): 53	8 (≈ 9.2 µM)
isolate (source animal id): 83	4 (≈ 4.6 µM)
isolate (source animal id): 88	4 (≈ 4.6 µM)
isolate (source animal id): 92	8 (≈ 9.2 µM)
isolate (source animal id): 93	4 (≈ 4.6 µM)
isolate (source animal id): 99	4 (≈ 4.6 µM)
isolate (source animal id): 100	8 (≈ 9.2 µM)
isolate (source animal id): 105	4 (≈ 4.6 µM)
isolate (source animal id): 107	4 (≈ 4.6 µM)
isolate (source animal id): 108	4 (≈ 4.6 µM)
isolate (source animal id): 109	8 (≈ 9.2 µM)
isolate (source animal id): 110	8 (≈ 9.2 µM)
isolate (source animal id): 117	4 (≈ 4.6 µM)
isolate (source animal id): 121	4 (≈ 4.6 µM)
isolate (source animal id): 123	8 (≈ 9.2 µM)
isolate (source animal id): 124	4 (≈ 4.6 µM)
isolate (source animal id): 127	4 (≈ 4.6 µM)
isolate (source animal id): 128	4 (≈ 4.6 µM)
isolate (source animal id): 130	8 (≈ 9.2 µM)
isolate (source animal id): 132	4 (≈ 4.6 µM)
isolate (source animal id): 135	4 (≈ 4.6 µM)
isolate (source animal id): 140	4 (≈ 4.6 µM)
isolate (source animal id): 141	4 (≈ 4.6 µM)
isolate (source animal id): 142	> 16
isolate (source animal id): 144	8 (≈ 9.2 µM)
isolate (source animal id): 146	8 (≈ 9.2 µM)
isolate (source animal id): 147	> 16
isolate (source animal id): 151	4 (≈ 4.6 µM)
isolate (source animal id): 153	16 (≈ 18.4 µM)
isolate (source animal id): 154	> 16
isolate (source animal id): 156	> 16
isolate (source animal id): 157	16 (≈ 18.4 µM)
isolate (source animal id): 176	16 (≈ 18.4 µM)
isolate (source animal id): 183	8 (≈ 9.2 µM)
isolate (source animal id): 186	8 (≈ 9.2 µM)
isolate (source animal id): 196	8 (≈ 9.2 µM)
isolate (source animal id): 198	8 (≈ 9.2 µM)
isolate (source animal id): 200	8 (≈ 9.2 µM)
isolate (source animal id): 206	8 (≈ 9.2 µM)
isolate (source animal id): 208	8 (≈ 9.2 µM)
isolate (source animal id): 210	4 (≈ 4.6 µM)
isolate (source animal id): 212	≤ 2
isolate (source animal id): 215	8 (≈ 9.2 µM)
isolate (source animal id): 216	16 (≈ 18.4 µM)
isolate (source animal id): 218	8 (≈ 9.2 µM)
isolate (source animal id): 219	8 (≈ 9.2 µM)
isolate (source animal id): 224	8 (≈ 9.2 µM)
isolate (source animal id): 228	8 (≈ 9.2 µM)
isolate (source animal id): 230	16 (≈ 18.4 µM)
isolate (source animal id): 233	4 (≈ 4.6 µM)
isolate (source animal id): 238	≤ 2
isolate (source animal id): 239	8 (≈ 9.2 µM)
isolate (source animal id): 241	8 (≈ 9.2 µM)
isolate (source animal id): 242	8 (≈ 9.2 µM)
isolate (source animal id): 243	8 (≈ 9.2 µM)
isolate (source animal id): 245	≤ 2
isolate (source animal id): 246	8 (≈ 9.2 µM)
isolate (source animal id): 247	16 (≈ 18.4 µM)
isolate (source animal id): 248	≤ 2
isolate (source animal id): 250	8 (≈ 9.2 µM)
isolate (source animal id): 251	8 (≈ 9.2 µM)
isolate (source animal id): 252	16 (≈ 18.4 µM)
isolate (source animal id): 254	8 (≈ 9.2 µM)
isolate (source animal id): 258	4 (≈ 4.6 µM)
isolate (source animal id): 259	4 (≈ 4.6 µM)
isolate (source animal id): 262	≤ 2
isolate (source animal id): 264	≤ 2
isolate (source animal id): 265	≤ 2
isolate (source animal id): 266	4 (≈ 4.6 µM)
isolate (source animal id): 267	4 (≈ 4.6 µM)
isolate (source animal id): 269	4 (≈ 4.6 µM)
isolate (source animal id): 271	4 (≈ 4.6 µM)
isolate (source animal id): 272	≤ 2
isolate (source animal id): 274	≤ 2
isolate (source animal id): 276	≤ 2
isolate (source animal id): 278	≤ 2
isolate (source animal id): 280	≤ 2
isolate (source animal id): 281	8 (≈ 9.2 µM)
isolate (source animal id): 283	4 (≈ 4.6 µM)
isolate (source animal id): 288	8 (≈ 9.2 µM)
isolate (source animal id): 291	4 (≈ 4.6 µM)
isolate (source animal id): 292	8 (≈ 9.2 µM)
isolate (source animal id): 296	4 (≈ 4.6 µM)
isolate (source animal id): 306	8 (≈ 9.2 µM)
isolate (source animal id): 336	8 (≈ 9.2 µM)
isolate (source animal id): 337	8 (≈ 9.2 µM)
isolate (source animal id): 341	8 (≈ 9.2 µM)
